# Counter-ions that a name gives are not always drawn.
# Assays:
# [1] = test system: T. brucei brucei AnTat 1.9; assay: In vitro antitrypanosomal activity, Alamar Blue assay; assay type: cell-based; conditions: for Selectivity index HepG2/Tryp.: SI = CC50 HepG2 / IC50 Trypanosoma brucei brucei; for IC50: Trypanosoma brucei, slender bloodstream trypomastigotes, AnTat 1.9 strain, read-out: Trypanosoma brucei brucei IC50 values, Trypanos Antat 1.9
# Protocol: The effects of the tested compounds on the growth of T. brucei brucei were assessed using an Alamar Blue® assay described by Räz et al.[49] T. brucei brucei AnTat 1.9 (IMTA, Antwerpen, Belgium) was cultured in MEM with Earle’s salts, supplemented according to the protocol of Baltz et al.[50] with the following modifications: 0.5 mM mercaptoethanol (Sigma Aldrich), 1.5 mM L-cysteine (Sigma Aldrich), 0.05 mM bathocuproine sulphate (Sigma Aldrich), and 20% heat-inactivated horse serum (Gibco, France) at 37 °C and 5% CO2. Samples were incubated at an average density of 2000 parasites/well in sterile 96-wells plates (Fisher, France) with various concentrations of compounds dissolved in 0.9% NaCl. All doses were tested in duplicate. Appropriate controls treated with solvents 0.9% NaCl or DMSO or with suramin, pentamidine, eflornithine, and fexinidazole (reference drugs purchased from Sigma Aldrich and Fluorochem, UK) were added to each set of experiments. After 69 h incubation period at 37 °C, 10 µl of the viability marker Alamar Blue (Fisher) was added to each well, and the plates were incubated for 5 h. The plates were read in a PerkinElmer ENSPIRE (Germany) microplate reader using an excitation wavelength of 530 nm and an emission wavelength of 590 nm. […] IC50 values were calculated using a nonlinear regression analysis of dose-response curves performed using GraphPad Prism software (La Jolla, CA). IC50 values were calculated from three independent experiments.
# [2] = test system: L. donovani (MHOM/IN/00/DEVI) promastigotes; assay: In vitro antileishmanial activity, MTT assay on promastigotes; assay type: cell-based; conditions: Leishmania donovani, 72 h incubation, ≥10 = no activity noted at the highest concentration tested
# Protocol: L. donovani (MHOM/IN/00/DEVI) used in this study was provided by the CNR Leishmania (Montpellier, France). The effects of the tested compounds on the growth of L. donovani (MHOM/IN/00/DEVI) promastigotes were assessed by MTT assay. Briefly, promastigotes in log-phase in Schneider’s medium supplemented with 20% foetal calf serum (FCS), 2 mM L-glutamine and antibiotics (100 U/ml penicillin and 100 µg/ml streptomycin), were incubated at an average density of 10^6 parasites/ml in sterile 96-well plates with various concentrations of compounds dissolved in DMSO (final concentration less than 0.5% v/v), in duplicate. Appropriate controls treated with DMSO and amphotericin B (reference drug purchased from Sigma-Aldrich) were added to each set of experiments. After 72 h incubation period at 27 °C, parasite metabolic activity was determined. Each well was microscopically examined for precipitate formation. To each well was added 20 µl of 5 mg/ml MTT [3–(4,5-dimethylthiazol-2-yl)-2,5-diphenyltetrazolium bromide)] solution followed by 4 h incubation time. The enzyme reaction was stopped by addition of 100 µl of 50% isopropanol/10% sodium dodecyl sulfate. Plates were vigorously shaken (300 rpm) for 10 min, and the absorbance was measured at 570 nm in a BIO-TEK ELx808 Absorbance Microplate Reader. […] IC50 of the parasite’s growth (half maximal inhibitory concentration or IC50 values) were then calculated from the obtained experimental results using a previously described regression programme.
# [3] = test system: P. falciparum CQ-resistant strain W2; assay: In vitro antiplasmodial activity, SYBR Green I fluorescence-based method, strain W2; assay type: cell-based; conditions: for IC50: Plasmodium falciparum, chloroquine-resistant strain W2, 48 h incubation, read-out: P. falciparum strains IC50 values, W2; for Selectivity index HepG2/W2: SI = CC50 HepG2 / IC50 P. falciparum W2
# Protocol: (§1) The in vitro antiplasmodial activities were tested over concentrations ranging from […] against culture-adapted P. falciparum reference strains 3D7 and W2. […] The parasites were cultivated in RPMI medium (Sigma-Aldrich, Lyon, France) supplemented with 0.5% Albumax I (Life Technologies Corporation, Paisley, UK), hypoxanthine (Sigma-Aldrich), and gentamicin (Sigma-Aldrich) with human erythrocytes and were incubated at 37 °C in a candle jar, as described previously[43] .The P. falciparum drug susceptibility test was carried out in 96-well flat-bottom sterile plates in a final volume of 250 µl. After 48 h incubation period with the drugs, quantities of DNA in treated and control cultures of parasites in human erythrocytes were quantified using the SYBR Green I (Sigma-Aldrich) fluorescence-based method[44]^,[45]. Briefly, after incubation, plates were frozen at −20 °C until use. Plates were then thawed for 2 h at room temperature, and 100 µl of each homogenised culture was transferred to a well of a 96-well flat-bottom sterile black plate (Nunc, Inc., Rochester, NY) that contained 100 µl of the SYBR Green I lysis buffer (2xSYBR Green, 20 mM Tris base pH 7.5, 5 mM EDTA, 0.008% w/v saponin, 0.08% w/v Triton X-100). […] Plates were incubated for 1 h at room temperature and then read on a fluorescence plate reader (Tecan, Grödig, Austria) using excitation and emission wavelengths of 485 and 535 nm, respectively. IC50 values were calculated by non-linear regression analysis of data from dose-response curves, using TableCurve 2D version 5.0 software (Systat Software, San Jose, CA). IC50 values are reported as means calculated from three independent experiments.
# [4] = Cytotoxicity evaluation, MTT; assay type: cell-based, human; conditions: human
# Protocol: These cells are a commonly used human hepatocarcinoma-derived cell line that has characteristics similar to those of primary hepatocytes. These cells express many hepatocyte-specific metabolic enzymes, thus enabling the cytotoxicity of tested product metabolites to be evaluated. […] Duplicate assays were performed for each sample. Each well was microscopically examined for precipitate formation before the medium was aspirated from the wells. After aspiration, 100 µl of MTT solution (0.5 mg/ml in medium without FCS) were then added to each well. […] The MTT solution was removed, and DMSO (100 µl) was added to dissolve the resulting blue formazan crystals. Plates were shaken vigorously (300 rpm) for 5 min. The absorbance was measured at 570 nm with 630 nm as reference wavelength in a BIO-TEK ELx808 Absorbance Microplate Reader. DMSO was used as blank and doxorubicin (Sigma Aldrich) as positive control. Cell viability was calculated as percentage of control (cells incubated without compound). The CC50 was determined from the dose-response curve using the TableCurve 2D version 5.0 software (Systat Software, San Jose, CA)
# [5] = test system: P. falciparum CQ-sensitive strain 3D7; assay: In vitro antiplasmodial activity, SYBR Green I fluorescence-based method, strain 3D7; assay type: cell-based; conditions: for IC50: Plasmodium falciparum, chloroquine-sensitive strain 3D7, 48 h incubation, read-out: P. falciparum strains IC50 values, 3D7; for Selectivity index HepG2/3D7: SI = CC50 HepG2 / IC50 P. falciparum 3D7
# Protocol: as §1
Compound,IC50 [1] [µM],IC50 [2] [µM],IC50 [3] [µM],IC50 [5] [µM],melting point [°C],Selectivity index HepG2/Tryp. [1],Selectivity index HepG2/W2 [3],CC50 at 72 h [4] [µM],Selectivity index HepG2/3D7 [5]
"COc1ccc2cc(-c3ccc(CNCCCN(C)C)cc3)nc(-c3ccc(CNCCCN(C)C)cc3)c2c1 (as salt: (cooh)2) [Compound 2f, 7-Methoxy-1,3-bis{4-[(3-dimethylaminopropyl)aminomethyl]phenyl}isoquinoline]",–,–,–,–,178 to 180,–,–,–,–
"c1ccc2c(-c3ccc(CNCCCN4CCOCC4)cc3)nc(-c3ccc(CNCCCN4CCOCC4)cc3)nc2c1 (as salt: (cooh)2) [Compound 3f, 2,4-Bis{4-[(3-morpholinopropyl)aminomethyl]phenyl}quinazoline]",–,–,–,–,183 to 185,–,–,–,–
"COc1ccc2nc(-c3ccc(CNCCCN4CCN(C)CC4)cc3)cc(-c3ccc(CNCCCN4CCN(C)CC4)cc3)c2c1 [Compound 1l, 6-Methoxy-2,4-bis{4-[(3–(4-methylpiperazin-1-yl)propyl)aminomethyl]phenyl}quinoline]",1.54 ± 0.164,≥ 10,4.51 ± 0.71,1.8 ± 0.2,–,0.66,0.23,1.02 ± 0.1,0.57
"CN(C)CCCCNCc1ccc(-c2cc3ccccc3c(-c3ccc(CNCCCCN(C)C)cc3)n2)cc1 [Compound 2a, 1,3-Bis{4-[(4-dimethylaminobutyl)aminomethyl]phenyl}isoquinoline]",0.64 ± 0.163,≥ 10,6.23 ± 0.8,1.74 ± 0.36,–,12.98,1.33,8.31 ± 1,4.78
"COc1ccc2nc(-c3ccc(CNCCCN(C)C)cc3)cc(-c3ccc(CNCCCN(C)C)cc3)c2c1 [Compound 1j, 6-Methoxy-2,4-bis{4-[(3-dimethylaminopropyl)aminomethyl]phenyl}quinoline]",0.62 ± 0.07,≥ 10,4.21 ± 0.31,2.65 ± 0.18,–,4.03,0.59,2.5 ± 0.2,0.94
"COc1ccc2cc(-c3ccc(CNCCCN4CCN(C)CC4)cc3)nc(-c3ccc(CNCCCN4CCN(C)CC4)cc3)c2c1 [Compound 2h, 7-Methoxy-1,3-bis{4-[(3–(4-methylpiperazin-1-yl)propyl)aminomethyl]phenyl}isoquinoline]",0.81 ± 0.255,≥ 10,1.28 ± 0.34,1.81 ± 0.19,–,8.86,5.61,7.18 ± 0.6,3.97
"COc1ccc2nc(-c3ccc(CNCCCCN4CCN(C)CC4)cc3)cc(-c3ccc(CNCCCCN4CCN(C)CC4)cc3)c2c1 [Compound 1k, 6-Methoxy-2,4-bis{4-[(4–(4-methylpiperazin-1-yl)butyl)aminomethyl]phenyl}quinoline]",0.98 ± 0.118,≥ 10,4.1 ± 0.54,2.59 ± 0.2,–,6.28,1.50,6.16 ± 0.4,2.38
COc1ccc2c(-c3ccc(CNCCCN4CCN(C)CC4)cc3)nc(-c3ccc(CNCCCN4CCN(C)CC4)cc3)cc2c1 [Compound 2l],1.34 ± 0.088,≥ 10,9.6 ± 0.99,9.66 ± 1.2,–,1.50,0.21,2.01 ± 0.2,0.21
"CN1CCN(CCCCNCc2ccc(-c3cc4ccccc4c(-c4ccc(CNCCCCN5CCN(C)CC5)cc4)n3)cc2)CC1 [Compound 2c, 1,3-Bis{4-[(4–(4-methylpiperazin-1-yl)butyl)aminomethyl]phenyl}isoquinoline]",1.1 ± 0.318,≥ 10,4.42 ± 0.56,1.96 ± 0.58,–,4.53,1.13,4.98 ± 0.5,2.54
"COc1ccc2nc(-c3ccc(CNCCCCN(C)C)cc3)cc(-c3ccc(CNCCCCN(C)C)cc3)c2c1 [Compound 1i, 6-Methoxy-2,4-bis{4-[(4-dimethylaminobutyl)aminomethyl]phenyl}quinoline]",0.67 ± 0.091,≥ 10,7.92 ± 0.64,3.09 ± 0.38,–,5.34,0.45,3.58 ± 0.3,1.16

# Continued, in another order:
IC50 [1] [µM],IC50 [2] [µM],IC50 [3] [µM],IC50 [5] [µM],Compound,melting point [°C],Selectivity index HepG2/Tryp. [1],Selectivity index HepG2/W2 [3],CC50 at 72 h [4] [µM],Selectivity index HepG2/3D7 [5]
0.75 ± 0.121,≥ 10,0.99 ± 0.09,0.61 ± 0.03,"COc1ccc2c(-c3ccc(CNCCN(C)C)cc3)nc(-c3ccc(CNCCN(C)C)cc3)nc2c1 [Compound 3o, 7-Methoxy-2,4-bis{4-[(2-dimethylaminoethyl)aminomethyl]phenyl}quinazoline]",–,1.52,1.15,1.14 ± 0.4,1.87
1.07 ± 0.164,≥ 10,4.75 ± 0.31,4.34 ± 0.33,"COc1ccc2c(-c3ccc(CNCCN4CCN(C)CC4)cc3)nc(-c3ccc(CNCCN4CCN(C)CC4)cc3)nc2c1 [Compound 3r, 7-Methoxy-2,4-bis{4-[(2–(4-methylpiperazin-1-yl)ethyl)aminomethyl]phenyl}quinazoline]",–,3.64,0.82,3.9 ± 0.9,0.90
1.02 ± 0.194,≥ 10,5.08 ± 0.48,6.56 ± 1.44,"COc1ccc2c(-c3ccc(CNCCCCN4CCN(C)CC4)cc3)nc(-c3ccc(CNCCCCN4CCN(C)CC4)cc3)nc2c1 [Compound 3p, 7-Methoxy-2,4-bis{4-[(4–(4-methylpiperazin-1-yl)butyl)aminomethyl]phenyl}quinazoline]",–,17.01,3.41,17.4 ± 1.2,2.64
